This is an account of results in a melting point compilation (Tetko et al.; mined from patent text by program, amines drawn as free bases though some values may be those of a salt).

Each structure is given as a SMILES string.

Usually melting point stands for the temperature of the solid-liquid transition. As for `CCCn1nc2c(N)nc3ccccc3c2c1CCc1ccccc1`, the melting point is 175 to 176 °C.

`Cc1ccc(-c2ccc(CN3CCN(c4ccccc4)CC3)o2)cc1C` gave a melting point of 110 °C. Next, `CC(C)(C)OC(=O)N1CCC(CCNC2(c3ccccc3Cl)C(=O)Nc3cc(Cl)c(Cl)cc32)CC1` (configuration not stated): 248 to 249 °C; `COc1ccc2c(c1)c(C(C)=NOC1CCCCO1)c(C)n2C(=O)c1ccc(Cl)cc1` (configuration not stated): 115 to 119 °C; `Cc1cnc(CCCC#N)c([N+](=O)[O-])c1`: 53 to 55 °C. Under `O=C(O)C(F)c1cccc(OCc2ccccc2Cl)c1OCc1ccccc1Cl` (configuration not stated) stands 92 to 94 °C; under `Cc1c(Cc2ccccc2)c(=O)n2c(CN(C)Cc3ccccc3)c(-c3ccc(NC(=O)OC(C)(C)C)cc3)nc2n1Cc1c(F)cccc1F`, 179 to 184 °C; under `CC(C)Nc1cccnc1N1CCN(C(=O)c2ccc(C(=O)N3CCN(CC(O)CO)CC3)cc2)CC1` (configuration not stated), 158 °C.

Regarding `O=C(O)Cc1cc(Cc2cccc(Oc3ccccc3)c2)ccc1Nc1c(Cl)cccc1Cl`, the melting point was 116 to 117 °C. The molecule `O=C1Nc2ccccc2Sc2ccccc21` registered a melting point of 258 to 259 °C. As to `C[C@@H]1CN(C(=O)[C@@](C)(O)C(F)(F)F)[C@@H](C)CN1C(=O)c1ccc(F)cc1`, the melting point lay in the range of 177 to 178 °C. Next, `CS(=O)(=O)c1ccc(C(CC2CCCC2)C(=O)Nc2ccc(Br)cn2)cc1Br` (configuration not stated): 83 to 86 °C; `Cn1cc2c(n1)Nc1ccc(Cl)cc1NC2=O`: greater than 260 °C; `COC(=O)c1cncc(OC2SCC(OC(C)=O)C(OC(C)=O)C2OC(C)=O)c1` (configuration not stated): 50 °C. Under `Cc1cc(-n2ccc(OCC3CC3)cc2=O)sc1C(=O)NCc1ccccc1` stands 175 to 177 °C. `CC(C)(C)OC(=O)N1CCc2c(cccc2C(=O)c2cc(Cl)ccc2N)C1` came in with a melting point of 159 to 160 °C. Molecule `CCCCCCCCCCCCCC/C=C\CC[C@@H]1OC(=O)C(O)=C1O` showed a melting point of 64 to 66 °C. Under `Oc1ccc(Cl)cc1C(O)(C1CCCCC1)C1CCCCC1` stands 230 °C; under `NS(=O)(=O)c1ccc(S(=O)(=O)CCCO)c(C(=O)O)c1`, 170 °C; under `CCCC(=O)NCCC1CCc2cc(OC)ccc21` (single isomer, unassigned; (-)), 79 to 80 °C.

On to `CN1CCC2(CC1)C(=O)N(C)C(=O)N2c1ccccc1`, for which the melting point lay in the range of 132 to 134 °C. Next, `CCOC(=O)c1ccc2c(cnn2CCC#N)c1`: 106 to 109 °C; `COc1cccc(C2C(C(=O)O)CC(=O)N2c2ccccc2)c1` (configuration not stated): 145 to 149 °C; `CCCCCCCCCCCCCCCCCCOc1cc(O)cc(C(=O)OC)c1`: 93 to 94 °C. Under `C=CCOc1ccc2c(c1C=NO)OCO2` stands 166 to 167 °C.

Molecule `CC(=O)c1ccc2c(c1)c1cc(-c3ccc(Cl)cc3Cl)c(=O)n(C)c1n2C` registered a melting point of 254 to 255 °C.

`O=C(c1c(F)cccc1F)N1COCN(c2ccc(SC(F)(F)C(F)(F)F)cc2F)C1=O` came in with a melting point of 47 to 50 °C. Next, `CC(C)(C)c1cc(-c2n[nH]c3ncccc23)cc(C(C)(C)C)c1O`: 216 to 217 °C; `O=C(Nc1cccc(-c2ccnc3c(C(=O)c4cccs4)cnn23)c1)OCC(Cl)(Cl)Cl`: 197 to 200 °C; `CC(C)CN(C[C@H](O)COc1cccc2[nH]c3ccccc3c12)c1ccc(OC(C)(C)C(N)=O)cc1`: 84 to 86 °C. Molecule `Nc1ccc(C(CC2CCCC2)C(=O)O)cc1` (configuration not stated) returned a melting point of 167 to 169 °C. As to `CCCCCCCCC1(CCCCCCCC)c2cc(O)ccc2-c2ccc(Br)cc21`, the melting point came to 110 °C.

In turn, `O=C(Nc1ccccc1-c1ccccc1)OCCCC(=O)c1ccccc1` showed a melting point of 87 to 89 °C. `O=C(NCc1ncccn1)c1cnc(N2CCC[C@H]2CO)nc1NCc1cccc(Cl)c1` registered a melting point of 153 to 156 °C. The molecule `O=S(=O)(Nc1ccc2c(OCc3cccc(-c4cc(Cl)cc(Cl)c4)c3)cccc2c1)C(F)(F)F` gave a melting point of 142 to 143 °C. Next, `COCCOc1cc(NC(=O)OC(C)(C)C)c(NC(=O)CC(=O)c2cccc(-n3ccnc3)c2)cc1-c1ccc(F)cc1`: 61 to 63 °C.

The molecule `Cc1cc(C2=NN(C(=S)Cl)[C@H](C)Cc3cc4c(cc32)OCO4)cc(C)c1[N+](=O)[O-]` displayed a melting point of 216 °C.

On to `NS(=O)(=O)c1c(C(F)F)nsc1OCC(F)(F)F`, for which the melting point lay within 102 to 104 °C.

In turn, `CSc1nccc(C(=O)C(=O)c2ccc(F)cc2)n1` yielded a melting point of 74 to 76 °C. For `CC(OP(=O)(c1ccccc1)c1ccccc1)c1ccccc1C(C)OP(=O)(c1ccccc1)c1ccccc1` (configuration not stated), the melting point fell in the range of 147 to 148 °C. Under `CC(C)(C)OC(=O)[C@@H]1CS[C@H](c2ccccc2-c2ccccc2)N1C(=O)CNC(=O)Nc1cccc(CC(=O)O)c1` stands 128 °C. Next, `Nc1nc(Nc2cccnc2)sc1C(=O)c1ccc(Cl)cc1Cl`: 209 to 210 °C; `Cc1cc(NC(=O)NNc2cccc(C#N)c2)ccc1N1CCCCC1=O`: 206 to 207 °C; `CN1C(=O)C(c2ccccc2)=C(c2cn(C)c3ccccc23)C1=O`: 242 to 246 °C. Regarding `OCc1cc(F)nc(F)c1`, the melting point lay in the range of 66 to 67 °C. Under `c1ccc2c(c1)ncc1nc(C3CCCCCC3)[nH]c12` stands 225 to 226 °C.

As to `CCNCC(=O)N1c2ccccc2NC(=O)c2c1c(C)cn2C`, the melting point is 175 to 176 °C. Turning to `COc1ccc(-c2c(OCCN3CCOCC3)c3ccccc3oc2=O)cc1`, the melting point came out at 104 °C. Molecule `O=C(O)CCC(=O)c1ccc(-c2ccccc2F)cc1` returned a melting point of 148 to 153 °C. Under `Cc1cc(SC2=C(O)CC(CCC3CCCC3)(C3CCCC3)OC2=O)c(C(C)(C)C)cc1CO` (configuration not stated) stands 68 to 71 °C. Regarding `CCS(=O)(=O)Nc1cccc(C(=C(C)C)c2c[nH]cn2)c1`, the melting point lay within 152 to 155 °C. Next, `CN(C)c1ncn2c1C[N+]([O-])=C(c1ccccc1F)c1cc(Cl)ccc1-2`: 203 to 206 °C; `COc1ccccc1Sc1c(Cl)nc(C)nc1NS(=O)(=O)c1ccc(C(C)(C)C)cc1`: 155 °C; `CCOC(=O)c1c(CN2CCOCC2)nc2ccc(Cl)cc2c1-c1ccccc1`: 161 to 163 °C. Next, `CCCCCCCCCCCC(=O)OC(OC(=O)N1CCN(c2cc3c(cc2F)c(=O)c(C(=O)O)cn3CC)CC1)C(=O)OC(C)C` (configuration not stated): 106 to 109 °C; `NC(=O)CCN1CCCCC1`: 105 to 107 °C. Next, `Cc1ccc2c(c1)C=Cc1sc(C)nc1C2c1cn(C)c(=O)[nH]c1=S` (configuration not stated): 235 to 237 °C.

As for `COc1cc2c(cc1Nc1ncc(Cl)c(Nc3ccc(N(C)C)cc3OC)n1)CCN(CC(=O)N(C)C)CC2`, the melting point fell in the range of 69 to 83 °C. Next, `CNC(=O)Nc1ccc2c(c1)C(=O)C1(CC1)O2`: 196 to 204 °C; `CC(C)CNCc1cc2cc(NC(=O)c3ccc(OCC4CCOC4)cc3)ccc2n1C` (configuration not stated): 125 to 126 °C; `CCCCCCCCCCCCCCCCSCC(CO)NC(=O)OC(C)(C)C` (configuration not stated): 48 to 50 °C. Next, `O=C(NCc1c[nH]c(=S)n1[C@H]1CCc2c(F)cc(F)cc2C1)c1ccccc1`: 260 to 261 °C; `CCOC(=O)c1ccc(NC(=O)CCc2ccc(OC)cc2)cc1`: 134 to 136 °C; `Cc1noc(-c2cccc(CN3CCN(c4ccc(NC(=O)OC(C)(C)C)cc4)CC3)c2)n1`: 159 to 161 °C. Under `O=C(O)c1cn(Cc2ccccc2)c2cc(Cl)c(F)cc2c1=O` stands 250 °C; under `CC(C)(C)c1nnc(NC(=O)CC(=O)CBr)s1`, 128 to 130 °C. In turn, `CC(=O)N1CC=C(C2=C(C#N)C(c3cccc4nonc34)c3c[nH]nc3N2)CC1` (configuration not stated) came in with a melting point of 237 °C. Next, `CCCCCCCCCC(=O)OCC#Cc1ncn2c1CN(C)C(=O)c1c(Cl)cccc1-2`: 70 to 72 °C. Under `CSc1ccc2nc(NN)sc2c1` stands 173 to 176 °C; under `OC/C=C/c1ccc(O)cc1`, 116 to 118 °C; under `O=[N+]([O-])c1cccc(S(=O)(=O)NC(CO)(CO)CO)c1`, 98 to 99 °C.

The molecule `C=CCn1nc(C)c(CC(=O)O)c1C` displayed a melting point of 139 to 140 °C. Under `Nc1nc(CCc2ccccc2)nc2nc(-c3ccco3)nn12` stands 235 to 237 °C; under `CCC(O)CN1CCC2(CC1)CSC1=C(O2)c2ccccc2C(=O)C1=O` (configuration not stated), 180 to 182 °C; under `CN1C(=O)N(C)C(O)C1O` (configuration not stated), 140 °C. Consider `COC(=O)C1=C(C)NC(C)=C(C(=O)OCC2CCCO2)C1c1ccccc1Br` (configuration not stated), for which the melting point lay in the range of 170 to 172 °C.

`CCN(CC)C(=O)Nc1ccc(S(=O)(=O)Cl)cc1`: the melting point was 148 to 150 °C. Next, `CC1(C)C2CC[C@@]1(C)C(=O)C(C(=O)Nc1ccc(F)c(C(F)(F)F)c1)C2=O` (some centres not stated): 96 to 98 °C. Under `CCOC(=O)c1cn(Cc2ccccc2OC)c2sc(-c3ccc(NC(C)=O)cc3)c(CN(C)Cc3ccccc3)c2c1=O` stands 161 to 163 °C; under `CN1CCN(c2cc(Cl)cc3c2c(=O)n(Cc2cccc(N)c2)c(=O)n3Cc2ccccc2)CC1`, 260 to 265 °C. Molecule `O=C(Nc1ccccc1)c1cc(Oc2ccc3c(c2)CCN3C(=O)Nc2cccc(C(F)(F)F)c2)ncn1` came in with a melting point of 227 to 229 °C.

Molecule `Cc1ccc2ncccc2c1C(=O)NCC1CCCCC1` registered a melting point of 165 °C.

For the molecule `CC(=O)Oc1ccc2nc(C(N)=O)nc(O)c2c1`, the melting point came out at 250 °C. Next, `CC(=O)NCc1ccc(Oc2ccccc2C(=O)CN2CCN(c3ccncc3)CC2)cc1`: 150 to 151 °C.

The molecule `Nc1ncc([N+](=O)[O-])c(OCc2ccccc2)n1` registered a melting point of 164 to 167 °C.

In turn, `CC(=O)Oc1cc2cc[nH]c2cc1OC(C)=O` gave a melting point of 130 to 131 °C. The molecule `O=C1c2ccccc2C(=O)N1CCOCCl` showed a melting point of 69 to 72 °C.
